In patent US9234025B2, “Extracellular allosteric inhibitor binding domain from a tyrosine kinase receptor” (SANOFI, priority 2009, dated 2016):

Columns and labels:
B9-FGFR3WT cell line = assay: B9 myeloma cell proliferation, FGFR3WT; type: cell-based; conditions: 0.1 μM SSR; FGF1 25 ng/ml
Protocol: Cell proliferation was analysed on exponentially growing cells that were starved for 16 hours in IMDM (Invitrogen, 31980048), 0.2% FBS, 2 mM glutamine containing medium and seeded at 4,000 cells/well in 96-well microplates. After exposure to mitogens and/or SSR for 72 hours, cell proliferation was assessed with the use of the CellTiter 96 AQueous One Solution Cell Proliferation Assay (Promega, Madison, Wis., USA) according to manufacturer's instructions.
For studying SSR effect on FGFR3, the proliferation of B9-myeloma cells, expressing either FGFR3WT or FGFR3TD (a constitutively activated FGFR3 variant induced by the K650E mutation, even in the absence of any ligand; Truedel et al; blood 2006), was assayed by stimulation with FGF1 (25 ng/ml).

FGFR1^∂3 = molecular target: T1, FGFR1^∂3 (Homo sapiens, UniProt P11362); assay: 1D-NMR, FGFR1 domain D3 fragment; type: binding
T1 construct: a fragment containing only domain D3 (FGFR1^∂3)
T1 sequence (P11362 255-357 limits assumed): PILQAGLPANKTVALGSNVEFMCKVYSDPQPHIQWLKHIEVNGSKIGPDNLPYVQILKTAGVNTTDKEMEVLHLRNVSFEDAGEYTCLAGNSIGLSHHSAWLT
Protocol: All STD- and 1D-NMR experiments were carried out on a BRUKER three-channel DRX600 and on a BRUKER four-channel DRX800 spectrometer at the standard temperature of 298 K and were referenced to the internal standard 3-Trimethyl-2,2,3,3-tetradeuteropropionate-sodium salt (TSP). Typically, NMR samples contained 0.5 ml of protein ([…]) in 25 mM Tris/HCl, pH 8.0, 200 mM NaCl, 25 mM L-arginine, 2 mM EDTA, 0.02% azide (in 95% H2O/5% D2O). For protein ligand 1D STD NMR measurements spectra were recorded with 1 mM ligand SSR128129E (100 mM DMSO stock solution) and […] protein with weak 2s RF irradiation on separated protein methyl resonances. Water suppression was carried out using the standard Bruker WATERGATE 3-9-19 sequence. NMR data were processed using the Bruker program xwin NMR software.
Since SSR was a multi-FGFR inhibitor, we used polypeptide fragments of the various (human) FGFR subtypes. […] We then used ECD fragments of FGFRs to map the binding site of SSR to one of the three Ig-domains. […] In fact, FGFR1^∂3 and FGFR1^∂123 give identical signals (broad line) meaning that we obtained same affinity for these proteins while FGFR1^∂12 and FGFR1^∂2 cause sharp lines (FIG. 11B).

FGF1 = molecular target: T2, FGF1 (Homo sapiens, UniProt P05230); assay: ITC or STD-NMR, FGF1; type: binding
T2 construct: FGF1 (amino acids: 16-155); made in house
T2 sequence (P05230 16-155, species assumed): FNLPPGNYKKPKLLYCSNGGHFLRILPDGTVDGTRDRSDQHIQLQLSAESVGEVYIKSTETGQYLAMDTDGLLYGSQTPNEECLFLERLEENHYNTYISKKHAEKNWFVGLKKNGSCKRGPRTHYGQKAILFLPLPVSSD
Protocol: The extracellular domain (ECD; amino acids: 39-358) of the human FGFR1 gene (P11362) was PCR amplified and cloned into E. coli vector pETTEV (with a N-terminal His-tag followed by a TEV protease cleavage site), using NdeI and BamHI restriction sites. For protein production, the resulting plasmid (pET FGFR1 D1D2D3) was transformed into E. coli BL21(DE3) (Novagene). Cells were grown at 37° C. until the OD600 reached 0.6 and recombinant protein production was induced by adding 1 mM IPTG (isopropyl-b-D-thiogalactopyranoside). After 4 hours induction, cells were harvested and stored at −80° C. until usage. The cell pellet (1 L culture) was thawed and resuspended in 50 ml buffer 1 (20 mM Tris/HCl, pH 7.5, 200 mM NaCl) containing lysozyme (2 mg), and 40 U benzonase (Merck). […] Complex formation was analyzed by size exclusion chromatography and subsequent analysis on SDS-PAGE.
All STD- and 1D-NMR experiments were carried out on a BRUKER three-channel DRX600 and on a BRUKER four-channel DRX800 spectrometer at the standard temperature of 298 K and were referenced to the internal standard 3-Trimethyl-2,2,3,3-tetradeuteropropionate-sodium salt (TSP). […] For protein ligand 1D STD NMR measurements spectra were recorded with 1 mM ligand SSR128129E (100 mM DMSO stock solution) and […] protein with weak 2s RF irradiation on separated protein methyl resonances. […]

FGFR2^∂23 = molecular target: T3, FGFR2^∂23 (Homo sapiens, UniProt P21802); assay: Fourier transform infrared (FTIR) measurement, FGFR2 D2-3; conditions: maximum around 1,640 cm^−1, 100 μM SSR
T3 construct: FGFR2^∂23 (consisting of domain D2 and 3); made in house
T3 sequence (P21802 148-366 limits assumed): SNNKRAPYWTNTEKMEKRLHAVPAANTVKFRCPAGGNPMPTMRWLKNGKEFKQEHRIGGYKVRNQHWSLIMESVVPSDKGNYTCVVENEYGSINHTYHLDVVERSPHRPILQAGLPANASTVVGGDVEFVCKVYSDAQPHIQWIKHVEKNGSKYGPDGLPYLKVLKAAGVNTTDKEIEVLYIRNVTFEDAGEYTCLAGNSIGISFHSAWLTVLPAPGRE
Protocol: (§1) Fourier transform infrared measurements were performed using a Bruker Tensor 37 FT-IR spectrometer equipped with an AquaSpec flowcell. The sample compartment was thermostatted to 25° C., 100 spectra were averaged for a good signal to noise ratio. Proteins were purified as described above. Immediately after the gelfiltration, the proteins were dialysed overnight in the same preparation of buffer (10 mM Hepes pH 7.2, 150 mM NaCl) in the presence or absence of SSR. Dialysis buffer samples were used to substract background signal. The analysis was performed using the OPUS software package, provided by Bruker. Interpretation of the results was performed as described {Barth, 2002 #60}.

FGFR2^∂23-Y328D = FGFR2^∂23-Y328D (Homo sapiens, UniProt P21802, Y328D); assay: FTIR measurement, FGFR2 Y328D mutant; set-up: FGFR2^∂23 (consisting of domain D2 and 3); made in house; conditions: 100 μM SSR
Chain of FGFR2^∂23-Y328D (P21802 148-366 Y328D limits assumed): as the sequence (P21802 148-366 limits assumed) above, with Y181D counted along it
Protocol: as §1
We next explored whether SSR bound to amino acid residues that form part of the orthosteric site in D3 or to an alternative allosteric site. Initially, we used the molecular docking algorithms of the software packages MOLEGRO, Autodock and YASARA and available crystallographic data. […] These findings are consistent with a model whereby SSR binds to an allosteric site formed by a hydrophobic pocket near the orthosteric ligand binding site, and in which residue Tyr^328 seems to be critical for mediating the interaction between SSR to FGFR2. We also analyzed the FTIR spectrum of the aforementioned mutated FGFR2 fragments.

COc1c(C)c(C(=O)c2ccc(N)c(C(=O)[O-])c2)n2ccccc12.[Na+] [SSR]
FGF1-induced proliferation of B9-FGFR3WT cells (B9-FGFR3WT cell line): inhibited | binding to FGFR1 domain D3 fragment (FGFR1^∂3): identified a binding site for SSR | binding to FGF1 (FGF1): failed to bind | change of FTIR spectrum (conformational change) (FGFR2^∂23): increase in the amplitude of the amide I band | change of FTIR spectrum (conformational change) (FGFR2^∂23-Y328D): failed to induce this change
